Test results as given in US20240092758A1, “IMIDAZOLO INDAZOLE COMPOUNDS AS JAK INHIBITORS” (Theravance Biopharma R&D IP, LLC, priority 2021, published 2024).

Legend:
JAK1 = JAK1 (Homo sapiens (Human), UniProt P23458); assay: Biochemical JAK kinase assay (LanthaScreen), JAK1; conditions: for Ki: read-out: JAK1 pKi (converted)
In short: (§1)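 LanthaScreen format: phospho-STAT1 (pTyr701) detected with 2 nM Tb antibody after 10 mM EDTA quench. Kinase step used Km-level ATP and 200 nM STAT1 peptide, 1 h at ambient after 1 h pre-incubation. Inhibition fitted to IC50, reported as pKi.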

JAK2 = JAK2 (Homo sapiens (Human), UniProt O60674); assay: Biochemical JAK kinase assay (LanthaScreen), JAK2; conditions: for Ki: read-out: JAK2 pKi (converted)
Chain of JAK2 (O60674 whole entry): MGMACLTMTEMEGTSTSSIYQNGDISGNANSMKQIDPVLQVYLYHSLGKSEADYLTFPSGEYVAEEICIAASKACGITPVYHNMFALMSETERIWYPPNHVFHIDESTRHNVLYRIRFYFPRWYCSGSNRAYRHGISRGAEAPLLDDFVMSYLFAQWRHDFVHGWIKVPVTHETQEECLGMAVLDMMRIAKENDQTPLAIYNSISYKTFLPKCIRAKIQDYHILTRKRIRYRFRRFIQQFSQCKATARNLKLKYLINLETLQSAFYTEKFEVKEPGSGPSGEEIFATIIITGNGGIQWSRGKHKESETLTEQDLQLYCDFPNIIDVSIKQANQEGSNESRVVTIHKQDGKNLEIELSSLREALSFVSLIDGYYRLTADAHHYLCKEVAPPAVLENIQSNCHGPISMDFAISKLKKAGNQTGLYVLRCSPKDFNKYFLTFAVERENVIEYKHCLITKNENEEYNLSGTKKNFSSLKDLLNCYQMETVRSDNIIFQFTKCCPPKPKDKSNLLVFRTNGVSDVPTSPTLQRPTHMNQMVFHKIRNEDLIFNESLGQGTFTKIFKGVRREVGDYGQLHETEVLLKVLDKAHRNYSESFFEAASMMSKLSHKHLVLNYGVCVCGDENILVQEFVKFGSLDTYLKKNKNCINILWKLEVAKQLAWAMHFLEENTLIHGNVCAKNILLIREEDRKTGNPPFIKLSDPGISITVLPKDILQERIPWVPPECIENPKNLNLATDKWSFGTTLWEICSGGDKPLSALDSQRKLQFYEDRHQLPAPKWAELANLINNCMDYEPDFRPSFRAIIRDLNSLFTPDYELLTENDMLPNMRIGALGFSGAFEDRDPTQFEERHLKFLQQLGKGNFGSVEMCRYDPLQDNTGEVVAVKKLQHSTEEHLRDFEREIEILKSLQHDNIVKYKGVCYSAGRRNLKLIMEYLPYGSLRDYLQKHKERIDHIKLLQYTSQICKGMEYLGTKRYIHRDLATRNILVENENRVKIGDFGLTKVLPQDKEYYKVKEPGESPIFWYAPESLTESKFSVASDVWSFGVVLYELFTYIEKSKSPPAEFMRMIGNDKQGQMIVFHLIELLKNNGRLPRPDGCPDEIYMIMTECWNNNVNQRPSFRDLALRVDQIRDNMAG
In short: as §1

[1] = test system: IL-13 induced STAT6 phosphorylation in BEAS-2B human lung epithelial cells; assay: Cellular JAKI potency assay (BEAS-2B); assay type: cell-based; conditions: Homo sapiens, BEAS-2B, BEAS-2B cells, read-out: BEAS2B pIC50 (converted)
In short: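 BEAS-2B cells were preincubated with compound (0.1% DMSO) in HBSS/HEPES/BSA for 1 h at 37 °C, then stimulated with IL-13 (80 ng/mL before addition) for 30 min. After lysis, pSTAT6 (Tyr641) was quantified by AlphaLISA SureFire; IC50 from a 4-parameter fit of percent inhibition, reported as pIC50.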

Chain of JAK1 (P23458 whole entry): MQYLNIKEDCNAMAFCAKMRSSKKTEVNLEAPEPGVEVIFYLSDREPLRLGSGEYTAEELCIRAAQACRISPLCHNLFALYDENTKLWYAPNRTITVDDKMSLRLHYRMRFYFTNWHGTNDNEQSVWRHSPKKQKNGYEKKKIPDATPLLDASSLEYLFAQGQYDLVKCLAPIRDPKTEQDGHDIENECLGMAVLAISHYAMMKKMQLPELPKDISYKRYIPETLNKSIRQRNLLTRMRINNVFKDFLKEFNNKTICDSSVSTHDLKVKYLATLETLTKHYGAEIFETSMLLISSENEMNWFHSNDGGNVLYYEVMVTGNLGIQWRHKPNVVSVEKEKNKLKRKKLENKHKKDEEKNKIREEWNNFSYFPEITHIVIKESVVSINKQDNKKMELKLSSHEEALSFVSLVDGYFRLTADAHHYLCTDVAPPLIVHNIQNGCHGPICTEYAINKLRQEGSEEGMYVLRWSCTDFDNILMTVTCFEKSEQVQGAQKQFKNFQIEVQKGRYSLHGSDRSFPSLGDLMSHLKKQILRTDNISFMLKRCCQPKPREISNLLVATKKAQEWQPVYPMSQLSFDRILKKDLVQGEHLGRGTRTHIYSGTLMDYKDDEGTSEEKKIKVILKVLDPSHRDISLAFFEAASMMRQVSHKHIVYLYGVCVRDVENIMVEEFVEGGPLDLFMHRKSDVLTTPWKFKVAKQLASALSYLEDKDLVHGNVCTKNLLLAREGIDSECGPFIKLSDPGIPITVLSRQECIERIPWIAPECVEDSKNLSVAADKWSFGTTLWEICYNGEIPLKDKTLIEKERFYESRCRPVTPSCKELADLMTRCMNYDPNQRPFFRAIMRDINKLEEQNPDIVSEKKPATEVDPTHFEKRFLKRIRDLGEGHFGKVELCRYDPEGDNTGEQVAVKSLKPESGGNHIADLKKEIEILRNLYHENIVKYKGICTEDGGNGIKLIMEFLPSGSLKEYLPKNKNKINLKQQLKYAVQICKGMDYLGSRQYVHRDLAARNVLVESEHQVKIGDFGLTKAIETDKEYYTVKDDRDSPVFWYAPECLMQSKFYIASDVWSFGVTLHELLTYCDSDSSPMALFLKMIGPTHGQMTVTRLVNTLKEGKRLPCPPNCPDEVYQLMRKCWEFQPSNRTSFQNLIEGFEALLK

Row | SMILES | Ki (JAK1) [nM] | Ki (JAK2) [nM] | IC50 [1] [nM] | JAK1 pKi (JAK1) | JAK2 pKi (JAK2)
1 | CCc1cc(O)ccc1-c1ccc2c(-c3nc(C4=CCNC4C)c[nH]3)n[nH]c2c1F (stereo not drawn) [Example 313] | 0.1 to 1 | 0.1 to 1 | 10 to 31.6 | – | –
2 | CCc1cc(O)ccc1-c1ccc2c(-c3nc(C4=C[C@H](CCO)NC4)c[nH]3)n[nH]c2c1F [Example 314] | 0.1 to 1 | 0.1 to 1 | 10 to 31.6 | – | –
3 | CCc1cc(O)ccc1-c1ccc2c(-c3nc(C4=C(C(=O)OC(C)C)CCNC4)c[nH]3)n[nH]c2c1F [Example 315] | 0.1 to 1 | 0.1 to 1 | 10 to 31.6 | – | –
4 | CCCCN1CC=C(c2c[nH]c(-c3n[nH]c4c(F)c(-c5ccc(O)cc5CC)ccc34)n2)C1 [Example 316] | – | – | 10 to 31.6 | A (A represents a pKi value ≥10 (Ki≤0.1 nM)) | A (A represents a pKi value ≥10 (Ki≤0.1 nM))
5 | CCc1cc(O)ccc1-c1ccc2c(-c3nc(C4=CCN(CCNC(=O)C5CCC5)CC4)c[nH]3)n[nH]c2c1F [Example 317] | 0.1 to 1 | 0.1 to 1 | 10 to 31.6 | – | –
6 | CCc1cc(O)ccc1-c1ccc2c(-c3nc(C4=CCN(C[C@@H](C)CO)C4)c[nH]3)n[nH]c2c1F [Example 318] | 0.1 to 1 | 0.1 to 1 | 10 to 31.6 | – | –
7 | CCc1cc(O)ccc1-c1ccc2c(-c3nc(C4=CCN[C@H](C)C4)c[nH]3)n[nH]c2c1F [Example 319] | 0.1 to 1 | 0.1 to 1 | 10 to 31.6 | – | –
8 | CCc1cc(O)ccc1-c1ccc2c(-c3nc(C4=CCN(CCC5(O)CC5)C4)c[nH]3)n[nH]c2c1F [Example 320] | 0.1 to 1 | – | 10 to 31.6 | – | A (A represents a pKi value ≥10 (Ki≤0.1 nM))
9 | CCc1cc(O)ccc1-c1ccc2c(-c3nc(C4=CCN(CCC5(O)CC5)CC4)c[nH]3)n[nH]c2c1F [Example 322] | 0.1 to 1 | 0.1 to 1 | 10 to 31.6 | – | –
10 | CCOC(=O)C1=C(c2c[nH]c(-c3n[nH]c4c(F)c(-c5ccc(O)cc5CC)ccc34)n2)CCNC1 [Example 323] | 0.1 to 1 | 0.1 to 1 | 10 to 31.6 | – | –
11 | CCc1cc(O)ccc1-c1ccc2c(-c3nc(C4=CCNCC4C)c[nH]3)n[nH]c2c1F (stereo not drawn) [Example 324] | 0.1 to 1 | 0.1 to 1 | 10 to 31.6 | – | –
12 | CCc1cc(O)ccc1-c1ccc2c(-c3nc(C4=C(C(=O)OC(C)C)CNCC4)c[nH]3)n[nH]c2c1F [Example 325] | 0.1 to 1 | 0.1 to 1 | 10 to 31.6 | – | –
13 | CCc1cc(O)ccc1-c1ccc2c(-c3nc(C4=CCN(Cc5cnoc5)CC4)c[nH]3)n[nH]c2c1F [Example 326] | 0.1 to 1 | 0.1 to 1 | 10 to 31.6 | – | –
14 | CCc1cc(O)ccc1-c1ccc2c(-c3nc(C4=CC(C)CNC4)c[nH]3)n[nH]c2c1F (stereo not drawn) [Example 327] | 0.1 to 1 | 0.1 to 1 | 10 to 31.6 | – | –
15 | CCc1cc(O)c(C)cc1-c1ccc2c(-c3nc(C4=CCNC4)c[nH]3)n[nH]c2c1F [Example 328] | 0.1 to 1 | 1 to 10 | 10 to 31.6 | – | –
16 | CCc1cc(O)ccc1-c1ccc2c(-c3nc(C4=C[C@H](CO)N(CCC(C)(C)O)C4)c[nH]3)n[nH]c2c1F [Example 329] | – | – | 10 to 31.6 | A (A represents a pKi value ≥10 (Ki≤0.1 nM)) | A (A represents a pKi value ≥10 (Ki≤0.1 nM))
17 | CCc1cc(O)ccc1-c1ccc2c(-c3nc(C4=CCN([C@H]5CC[C@](C)(O)CC5)C4)c[nH]3)n[nH]c2c1F [Example 330] | – | 0.1 to 1 | 10 to 31.6 | A (A represents a pKi value ≥10 (Ki≤0.1 nM)) | –
18 | CCc1cc(O)ccc1-c1ccc2c(-c3nc(C4=CCN(C5CCC(CO)CC5)C4)c[nH]3)n[nH]c2c1F (stereo not drawn) [Example 331] | – | 0.1 to 1 | 10 to 31.6 | A (A represents a pKi value ≥10 (Ki≤0.1 nM)) | –
19 | CCc1cc(O)ccc1-c1ccc2c(-c3nc(C4=CCN(C[C@H](C)CO)C4)c[nH]3)n[nH]c2c1F [Example 332] | 0.1 to 1 | 0.1 to 1 | 10 to 31.6 | – | –
20 | CCc1cc(O)ccc1-c1ccc2c(-c3nc(C4=CCN(C(=O)CN(C)C)C4)c[nH]3)n[nH]c2c1F [Example 333] | 0.1 to 1 | – | 10 to 31.6 | – | A (A represents a pKi value ≥10 (Ki≤0.1 nM))
21 | CCc1cc(O)ccc1-c1ccc2c(-c3nc(C4=CCN(CCC5(O)CCC5)CC4)c[nH]3)n[nH]c2c1F [Example 334] | 0.1 to 1 | 0.1 to 1 | 10 to 31.6 | – | –
22 | CCc1cc(O)ccc1-c1ccc2c(-c3nc(C4=CC5CN(C)CCN5CC4)c[nH]3)n[nH]c2c1F (stereo not drawn) [Example 335] | 0.1 to 1 | 0.1 to 1 | 10 to 31.6 | – | –
23 | CCc1cc(O)ccc1-c1ccc2c(-c3nc(C4=CC(C)(C)NC4)c[nH]3)n[nH]c2c1F [Example 336] | 0.1 to 1 | 0.1 to 1 | 10 to 31.6 | – | –

Row | SMILES | Ki (JAK1) [nM] | Ki (JAK2) [nM] | IC50 [1] [nM] | JAK1 pKi (JAK1) | JAK2 pKi (JAK2)
24 | CCc1cc(O)ccc1-c1ccc2c(-c3nc(C4=CC[C@H](C)N([C@H]5C[C@H](O)C5)C4)c[nH]3)n[nH]c2c1F [Example 337] | 0.1 to 1 | 0.1 to 1 | 10 to 31.6 | – | –
25 | CCc1cc(O)ccc1-c1ccc2c(-c3nc(C4=CCCN(CCC5(O)CC5)C4)c[nH]3)n[nH]c2c1F [Example 338] | 0.1 to 1 | 0.1 to 1 | 10 to 31.6 | – | –
26 | CCc1cc(O)ccc1-c1ccc2c(-c3nc(C4=C[C@@H](C)NCC4)c[nH]3)n[nH]c2c1F [Example 339] | 0.1 to 1 | 0.1 to 1 | 10 to 31.6 | – | –
27 | CCc1cc(O)ccc1-c1ccc2c(-c3nc(C4=C[C@H](CC(=O)N(CC)CC)NC4)c[nH]3)n[nH]c2c1F [Example 340] | – | – | 10 to 31.6 | A (A represents a pKi value ≥10 (Ki≤0.1 nM)) | A (A represents a pKi value ≥10 (Ki≤0.1 nM))
28 | CCc1cc(O)ccc1-c1ccc2c(-c3nc(C4=CCN([C@H]5CC[C@@](C)(O)CC5)C4)c[nH]3)n[nH]c2c1F [Example 341] | – | – | 10 to 31.6 | A (A represents a pKi value ≥10 (Ki≤0.1 nM)) | A (A represents a pKi value ≥10 (Ki≤0.1 nM))
29 | CCc1cc(O)ccc1-c1ccc2c(-c3nc(C4=CCN(CCC(=O)NC)C4)c[nH]3)n[nH]c2c1F [Example 342] | 0.1 to 1 | 0.1 to 1 | 10 to 31.6 | – | –
30 | CCc1cc(O)ccc1-c1ccc2c(-c3nc(C4=CCNC5(CC5)C4)c[nH]3)n[nH]c2c1 [Example 343] | 0.1 to 1 | 0.1 to 1 | 10 to 31.6 | – | –
31 | CCc1cc(O)ccc1-c1ccc2c(-c3nc(C4=C[C@@H](CO)N(C)C4)c[nH]3)n[nH]c2c1F [Example 344] | 0.1 to 1 | 0.1 to 1 | 10 to 31.6 | – | –
32 | CCc1cc(O)ccc1-c1ccc2c(-c3nc(C4=CCNC(CC)C4)c[nH]3)n[nH]c2c1F (stereo not drawn) [Example 346] | 1 to 10 | 0.1 to 1 | 10 to 31.6 | – | –
33 | CCc1cc(O)ccc1-c1ccc2c(-c3nc(C4=CCN[C@@H](CO)C4)c[nH]3)n[nH]c2c1F [Example 347] | – | – | 31.6 to 100 | A (A represents a pKi value ≥10 (Ki≤0.1 nM)) | A (A represents a pKi value ≥10 (Ki≤0.1 nM))
34 | CCc1cc(O)ccc1-c1ccc2c(-c3nc(C4=C[C@H](CO)NCC4)c[nH]3)n[nH]c2c1F [Example 348] | 0.1 to 1 | – | 31.6 to 100 | – | A (A represents a pKi value ≥10 (Ki≤0.1 nM))
35 | CCc1cc(O)ccc1-c1ccc2c(-c3nc(C4=CCN(C(=O)CNC)C4)c[nH]3)n[nH]c2c1F [Example 349] | 0.1 to 1 | – | 31.6 to 100 | – | A (A represents a pKi value ≥10 (Ki≤0.1 nM))
36 | CCc1cc(O)ccc1-c1ccc2c(-c3nc(C4=CCN(C(=O)CN5CCCC5)C4)c[nH]3)n[nH]c2c1F [Example 351] | 0.1 to 1 | – | 31.6 to 100 | – | A (A represents a pKi value ≥10 (Ki≤0.1 nM))
37 | CCc1cc(O)ccc1-c1ccc2c(-c3nc(C4=CCNC5(CC5)C4)c[nH]3)n[nH]c2c1F [Example 352] | 0.1 to 1 | 0.1 to 1 | 31.6 to 100 | – | –
38 | CCOC(=O)C1=C(c2c[nH]c(-c3n[nH]c4cc(-c5ccc(O)cc5CC)ccc34)n2)CCNC1 [Example 354] | 0.1 to 1 | 0.1 to 1 | 31.6 to 100 | – | –
39 | CCc1cc(O)ccc1-c1ccc2c(-c3nc(C4=C[C@H](CO)N(Cc5cnoc5)C4)c[nH]3)n[nH]c2c1F [Example 355] | 0.1 to 1 | 0.1 to 1 | 31.6 to 100 | – | –
40 | CCc1cc(O)ccc1-c1ccc2c(-c3nc(C4=CCNC(C(C)(C)C)C4)c[nH]3)n[nH]c2c1 (stereo not drawn) [Example 356] | 0.1 to 1 | 0.1 to 1 | 31.6 to 100 | – | –
41 | Oc1ccc(-c2ccc3c(-c4nc(C5=CCNC5)c[nH]4)n[nH]c3c2F)c(CC(F)(F)F)c1 [Example 357] | 0.1 to 1 | 0.1 to 1 | 31.6 to 100 | – | –
42 | CCc1cc(O)ccc1-c1ccc2c(-c3nc(C4=CC5CNCCN5CC4)c[nH]3)n[nH]c2c1F (stereo not drawn) [Example 358] | 0.1 to 1 | 0.1 to 1 | 31.6 to 100 | – | –
43 | CCc1cc(O)ccc1-c1ccc2c(-c3nc(C4=CCN([C@H]5CC[C@@](O)(C(F)(F)F)CC5)C4)c[nH]3)n[nH]c2c1F [Example 359] | 1 to 10 | 0.1 to 1 | 31.6 to 100 | – | –
44 | CCc1cc(O)ccc1-c1ccc2c(-c3nc(C4=C[C@H](CC(=O)N5CCCC5)NC4)c[nH]3)n[nH]c2c1F [Example 360] | – | – | 31.6 to 100 | A (A represents a pKi value ≥10 (Ki≤0.1 nM)) | A (A represents a pKi value ≥10 (Ki≤0.1 nM))
45 | CCc1cc(O)ccc1-c1ccc2c(-c3nc(C4=C[C@H](CC(=O)N5CCOCC5)NC4)c[nH]3)n[nH]c2c1F [Example 361] | 0.1 to 1 | – | 31.6 to 100 | – | A (A represents a pKi value ≥10 (Ki≤0.1 nM))
